# Columns and labels:
# [1] = test system: Staphylococcus epidermidis CCM.2271; test: MIC, strain 7; assay type: cell-based
# [2] = test system: Streptococcus faecalis CCM.1875.; test: MIC, strain 9; assay type: cell-based; conditions: Enterococcus faecalis
# [3] = test system: Streptococcus agalactiae CCM.5534.; test: MIC, strain 11; assay type: cell-based; conditions: Streptococcus agalactiae, CCM.5534.
# [4] = test system: Proteus vulgaris CCM.1799.; test: MIC, strain 25; conditions: 24 h
# Description: (§1) The antimicrobial activity of the primycin complex and the components thereof is tested on different microorganism strains.
# (§2) (Inoculation: 5 × 10^5 /ml, incubation at 37 C.° for
# [5] = test system: Pseudomonas acidoverans CCM.283; test: MIC, strain 24; conditions: CCM.283, 24 h
# Description: as §1, §2
# [6] = test system: Micrococcus luteus DSM.20030.; test: MIC, strain 20; assay type: cell-based
# [7] = test system: Pseudomonas fluorescens CCM.2115.; test: MIC, strain 23; conditions: 24 h
# Description: as §1, §2
# [8] = test system: Pseudomonas aeruginosa CCM.1960.; test: MIC, strain 22; conditions: 24 h
# Description: as §1, §2
# [9] = test system: Staphylococcus aureus DSM.20231; test: MIC, strain 2; assay type: cell-based; conditions: Staphylococcus aureus
# [10] = test system: Bacillus cereus CCM.2010.; test: MIC, strain 14; assay type: cell-based
# [11] = test system: Shigella sonnei CCM.1373.; test: MIC, strain 26; conditions: 24 h
# Description: (§3) The table contains the MIC values (/μg/ml) measured on human pathogenic polyresistant strains.
# as §1, §2
# [12] = test system: Bacillus licheniformis CCM.2182.; test: MIC, strain 15; assay type: cell-based
# [13] = test system: Staphylococcus aureus CCM.2514; test: MIC, strain 5; assay type: cell-based
# [14] = test system: Staphylococcus aureus CCM.885.; test: MIC, strain 1; assay type: cell-based
# [15] = test system: Bacillus licheniformis CCM.2205.; test: MIC, strain 16; assay type: cell-based
# [16] = test system: Escherichia coli DSM.30038.; test: MIC, strain 28; conditions: 24 h
# Description: as §3, §1, §2
# [17] = test system: Salmonella typhimurium CCM.5445.; test: MIC, strain 27; conditions: Salmonella enterica, 24 h
# Description: as §3, §1, §2
# [18] = test system: Sporosarcina ureae DSM.317; test: MIC, strain 21; conditions: DSM.317, 24 h
# Description: as §1, §2
# [19] = test system: Staphylococcus aureus CCM.2515.; test: MIC, strain 6; assay type: cell-based
# [20] = test system: Staphylococcus aureus CCM.2317.; test: MIC, strain 3; assay type: cell-based
# [21] = test system: Streptococcus agalactiae CCM.5153.; test: MIC, strain 10; assay type: cell-based
# [22] = test system: Staphylococcus aureus Smith; test: MIC, strain 8; assay type: cell-based
# [23] = test system: Bacillus subtilis CCM.1718.; test: MIC, strain 17; assay type: cell-based
# [24] = test system: Micrococcus flavus ATCC.10240.; test: MIC, strain 19; assay type: cell-based
# [25] = test system: Listeria monocytogenes CCM.5576.; test: MIC, strain 18; assay type: cell-based
# [26] = test system: Bacillus subtilis ATTC.6633.; test: MIC, strain 13; assay type: cell-based
# [27] = test system: Staphylococcus aureus CCM.2326.; test: MIC, strain 4; assay type: cell-based
# [28] = test system: Streptococcus disgalactiae ATTC.9926; test: MIC, strain 12; assay type: cell-based
smiles,measurement,setting,value
"CCCCC1C(=O)OC(C(C)C(O)CCCNC(=N)N)C(C)C=C(C)CCCCC(O)CC(O)CC(O)CC(O)CC(O)C(OC2OC(CO)C(O)C2O)C=C(C)C(O)CCCC(O)CCCC(O)CCC(C)C1O (stereo not drawn) [A1, chinopricin]",MIC,"[1]; CCM.2271, 24 h",0.75 µg/mL
same,MIC,"[1]; CCM.2271, 25 h",0.75 µg/mL
same,MIC,[2]; 24 h,2.5 µg/mL
same,MIC,[2]; 25 h,2.5 µg/mL
same,MIC,[3]; 24 h,1 µg/mL
same,MIC,[3]; 25 h,1 µg/mL
same,MIC,[4],50 µg/mL
same,MIC,[5],25 µg/mL
same,MIC,[6]; 24 h,0.05 µg/mL
same,MIC,[6]; 25 h,0.05 µg/mL
same,MIC,[7],25 µg/mL
same,MIC,[8],25 µg/mL
same,MIC,"[9]; DSM.20231, 24 h",0.05 µg/mL
same,MIC,"[9]; DSM.20231, 25 h",0.05 µg/mL
same,MIC,[10]; 24 h,0.25 µg/mL
same,MIC,[10]; 25 h,0.25 µg/mL
same,MIC,[11],50 µg/mL
same,MIC,[12]; 24 h,0.25 µg/mL
same,MIC,[12]; 25 h,0.25 µg/mL
same,MIC,"[13]; CCM.2514, 24 h",0.25 µg/mL
same,MIC,"[13]; CCM.2514, 25 h",0.25 µg/mL
same,MIC,[14]; 24 h,0.25 µg/mL
same,MIC,[14]; 25 h,0.25 µg/mL
same,MIC,[15]; 24 h,0.25 µg/mL
same,MIC,[15]; 25 h,0.25 µg/mL
same,MIC,[16],50 µg/mL
same,MIC,[17],50 µg/mL
same,MIC,[18],0.025 µg/mL
same,MIC,[19]; 24 h,0.25 µg/mL
same,MIC,[19]; 25 h,0.25 µg/mL
same,MIC,[20]; 24 h,0.25 µg/mL
same,MIC,[20]; 25 h,0.25 µg/mL
same,MIC,[21]; 24 h,0.75 µg/mL
same,MIC,[21]; 25 h,0.75 µg/mL
same,MIC,[22]; 24 h,0.25 µg/mL
same,MIC,[22]; 25 h,0.25 µg/mL
same,MIC,[23]; 24 h,0.25 µg/mL
same,MIC,[23]; 25 h,0.25 µg/mL
same,MIC,[24]; 24 h,0.075 µg/mL
same,MIC,[24]; 25 h,0.075 µg/mL
same,MIC,[25]; 24 h,0.5 µg/mL
same,MIC,[25]; 25 h,0.5 µg/mL
same,MIC,[26]; 24 h,0.25 µg/mL
same,MIC,[26]; 25 h,0.25 µg/mL
same,MIC,[27]; 24 h,0.25 µg/mL
same,MIC,[27]; 25 h,0.25 µg/mL
same,MIC,"[28]; ATTC.9926, 24 h, strain 12, Table O, 24 hours",2.5 µg/mL
same,MIC,"[28]; ATTC.9926, 25 h, strain 12, Tables I-XIII, 25 hours",2.5 µg/mL
